Experimental data taken from patent publication US20090082326A1, “SOLUBLE DOSAGE FORMS CONTAINING CEPHEM DERIVATIVES SUITABLE FOR PARENTERAL ADMINISTRATION” (Forest Laboratories Holdings Limited, priority 2007, published 2009).

Legend:
Type in all cases: physicochemical
[1] = pH solubility profile: one hour and three hour kinetic solubility in USP buffers at 0.05 M; conditions: aqueous buffer, thermodynamic from solid; for solubility at 1 h / solubility at 3 h: USP buffer 0.05 M, 25° C.
[2] = One hour kinetic solubility in acetic acid/sodium acetate ion mixtures; conditions: 25 °C, thermodynamic from solid
[3] = One hour kinetic solubility in citric acid/sodium citrate ion mixtures; conditions: 25 °C, aqueous buffer, thermodynamic from solid
[4] = One hour kinetic solubility in DL arginine mixtures; conditions: 25 °C, aqueous buffer, thermodynamic from solid
[5] = One hour kinetic solubility in L-arginine mixtures; conditions: 25 °C, aqueous buffer, thermodynamic from solid
[6] = One hour kinetic solubility in histidine mixtures; conditions: USP buffer with histidine, 25 °C, aqueous buffer, thermodynamic from solid
[7] = Aqueous solubility (stated in the description); conditions: water

**Q.** Which results are given for `CC(=O)[O-].CCO/N=C(\C(=O)N[C@@H]1C(=O)N2C(C(=O)O)=C(Sc3nc(-c4cc[n+](C)cc4)cs3)CS[C@H]12)c1nsc(NP(=O)(O)O)n1.O` [ceftaroline fosamil, (6R,7R)-7-[[2(Z)-ethoxyimino-[5-(phosphonoamino)-1,2,4-thiadiazol-3-yl]acetyl]amino]-3-[[4-(1-methyl-pyridinium-4-yl)thiazol-2-yl]sulfanyl]-8-oxo-5-thia-1-azabicyclo[4.2.0]oct-2-en-2-carboxylate monoacetate monohydrate]?
**A.** solubility ([1]; USP buffers, 25 °C, over pH about 3 to about 8, 0.05 M): 25 to 36 mg/mL; solubility at 1 h ([1]; pH 1.2): 6 mg/mL; solubility at 3 h ([1]; pH 1.2): 6 mg/mL; solubility at 1 h ([1]; pH 1.9): 9 mg/mL; solubility at 3 h ([1]; pH 1.9): 9 mg/mL; solubility at 1 h ([1]; pH 2.9): 27 mg/mL; solubility at 3 h ([1]; pH 2.9): 27 mg/mL; solubility at 1 h ([1]; pH 3.7): 36 mg/mL; solubility at 3 h ([1]; pH 3.7): 29 mg/mL; solubility at 1 h ([1]; pH 5.3): 26 mg/mL; solubility at 3 h ([1]; pH 5.3): 26 mg/mL; solubility at 1 h ([1]; pH 5.9): 34 mg/mL; solubility at 3 h ([1]; pH 5.9): 29 mg/mL; solubility at 1 h ([1]; pH 7.3): 25 mg/mL; solubility at 3 h ([1]; pH 7.3): 24 mg/mL; solubility at 1 h ([1]; pH 8.0): 29 mg/mL; solubility at 3 h ([1]; pH 8.0): 24 mg/mL; solubility at 1 h ([1]; pH 9.0): 16 mg/mL; solubility at 3 h ([1]; pH 9.0): 12 mg/mL; solubility at 1 h ([2]; USP buffer with acetic acid/sodium acetate, pH 2.9, aqueous buffer, pH 2.9, acetic acid/sodium acetate 1.0 M, 25° C., read-out: Solubility at 1 hr): 213 mg/mL; solubility at 1 h ([2]; USP buffer with acetic acid/sodium acetate, pH 3.1, aqueous buffer, pH 3.1, acetic acid/sodium acetate 0.5 M, 25° C., read-out: Solubility at 1 hr): 126 mg/mL; solubility at 1 h ([2]; USP buffer with acetic acid/sodium acetate, pH 3.2, aqueous buffer, pH 3.2, acetic acid/sodium acetate 2.0 M, 25° C., read-out: Solubility at 1 hr): 152 mg/mL; solubility at 1 h ([2]; USP buffer with acetic acid/sodium acetate, pH 3.9, aqueous buffer, pH 3.9, acetic acid/sodium acetate 1.0 M, 25° C., read-out: Solubility at 1 hr): 237 mg/mL; solubility at 1 h ([2]; USP buffer with acetic acid/sodium acetate, pH 3.9, aqueous buffer, pH 3.9, acetic acid/sodium acetate 2.0 M, 25° C., read-out: Solubility at 1 hr): 273 mg/mL; solubility at 1 h ([2]; USP buffer with acetic acid/sodium acetate, pH 4.2, aqueous buffer, pH 4.2, acetic acid/sodium acetate 0.5 M, 25° C., read-out: Solubility at 1 hr): 158 mg/mL; solubility at 1 h ([2]; USP buffer with acetic acid/sodium acetate, pH 4.7, aqueous buffer, pH 4.7, acetic acid/sodium acetate 2.0 M, 25° C., read-out: Solubility at 1 hr): 271 mg/mL; solubility at 1 h ([2]; USP buffer with acetic acid/sodium acetate, pH 4.8, aqueous buffer, pH 4.8, acetic acid/sodium acetate 1.0 M, 25° C., read-out: Solubility at 1 hr): 235 mg/mL; solubility at 1 h ([2]; USP buffer with acetic acid/sodium acetate, pH 5.7, aqueous buffer, pH 5.7, acetic acid/sodium acetate 1.0 M, 25° C., read-out: Solubility at 1 hr): 212 mg/mL; solubility at 1 h ([2]; USP buffer with acetic acid/sodium acetate, pH 5.9, aqueous buffer, pH 5.9, acetic acid/sodium acetate 2.0 M, 25° C., read-out: Solubility at 1 hr): 244 mg/mL; solubility at 1 h ([2]; USP buffer with acetic acid/sodium acetate, pH 6.9, aqueous buffer, pH 6.9, acetic acid/sodium acetate 1.0 M, 25° C., read-out: Solubility at 1 hr): 207 mg/mL; solubility at 1 h ([2]; USP buffer with acetic acid/sodium acetate, pH 6.9, aqueous buffer, pH 6.9, acetic acid/sodium acetate 2.0 M, 25° C., read-out: Solubility at 1 hr): 225 mg/mL; solubility at 1 h ([2]; USP buffer with acetic acid/sodium acetate, pH 7.7, aqueous buffer, pH 7.7, acetic acid/sodium acetate 1.0 M, 25° C., read-out: Solubility at 1 hr): 205 mg/mL; solubility at 1 h ([2]; USP buffer with acetic acid/sodium acetate, pH 7.8, aqueous buffer, pH 7.8, acetic acid/sodium acetate 2.0 M, 25° C., read-out: Solubility at 1 hr): 212 mg/mL; solubility at 1 h ([2]; USP buffer with acetic acid/sodium acetate, pH 8.2, aqueous buffer, pH 8.2, acetic acid/sodium acetate 0.5 M, 25° C., read-out: Solubility at 1 hr): 125 mg/mL; solubility at 1 h ([2]; USP buffer with acetic acid/sodium acetate, pH 8.9, aqueous buffer, pH 8.9, acetic acid/sodium acetate 0.5 M, 25° C., read-out: Solubility at 1 hr): 50 mg/mL; solubility at 1 h ([2]; USP buffer with acetic acid/sodium acetate, pH 8.9, aqueous buffer, pH 8.9, acetic acid/sodium acetate 1.0 M, 25° C., read-out: Solubility at 1 hr): 102 mg/mL; solubility at 1 h ([2]; USP buffer with acetic acid/sodium acetate, pH 9, aqueous buffer, pH 9.0, acetic acid/sodium acetate 2.0 M, 25° C., read-out: Solubility at 1 hr): 159 mg/mL; solubility at 1 h ([2]; acetic acid/sodium acetate buffer, pH 3, aqueous buffer, pH 3.0, acetic acid/sodium acetate 0.1 M, 25° C., read-out: Solubility at 1 hr): 20 mg/mL; solubility at 1 h ([2]; acetic acid/sodium acetate buffer, pH 3.8, aqueous buffer, pH 3.8, acetic acid/sodium acetate 0.1 M, 25° C., read-out: Solubility at 1 hr): 35 mg/mL; solubility at 1 h ([2]; acetic acid/sodium acetate buffer, pH 4.6, aqueous buffer, pH 4.6, acetic acid/sodium acetate 0.1 M, 25° C., read-out: Solubility at 1 hr): 36 mg/mL; solubility at 1 h ([2]; acetic acid/sodium acetate buffer, pH 4.7, aqueous buffer, pH 4.7, acetic acid/sodium acetate 0.5 M, 25° C., read-out: Solubility at 1 hr): 156 mg/mL; solubility at 1 h ([2]; acetic acid/sodium acetate buffer, pH 5.6, aqueous buffer, pH 5.6, acetic acid/sodium acetate 0.5 M, 25° C., read-out: Solubility at 1 hr): 123 mg/mL; solubility at 1 h ([2]; acetic acid/sodium acetate buffer, pH 6, aqueous buffer, pH 6.0, acetic acid/sodium acetate 0.1 M, 25° C., read-out: Solubility at 1 hr): 36 mg/mL; solubility at 1 h ([2]; acetic acid/sodium acetate buffer, pH 6.7, aqueous buffer, pH 6.7, acetic acid/sodium acetate 0.1 M, 25° C., read-out: Solubility at 1 hr): 31 mg/mL; solubility at 1 h ([2]; acetic acid/sodium acetate buffer, pH 6.8, aqueous buffer, pH 6.8, acetic acid/sodium acetate 0.5 M, 25° C., read-out: Solubility at 1 hr): 133 mg/mL; solubility at 1 h ([2]; acetic acid/sodium acetate buffer, pH 8.2, aqueous buffer, pH 8.2, acetic acid/sodium acetate 0.1 M, 25° C., read-out: Solubility at 1 hr): 31 mg/mL; solubility at 1 h ([2]; acetic acid/sodium acetate buffer, pH 9.4, aqueous buffer, pH 9.4, acetic acid/sodium acetate 0.1 M, 25° C., read-out: Solubility at 1 hr): 34 mg/mL; solubility at 1 h ([2]; acetic acid/sodium acetate ion mixtures, aqueous buffer, at acetate concentrations of 1.0 M and higher, read-out: solubility): > 200 mg/mL; solubility at 1 h ([3]; USP buffer with citric acid/sodium citrate, citric acid/sodium citrate 0.05 M, 25° C., read-out: Solubility at 1 hr): 121 mg/mL; solubility at 1 h ([3]; USP buffer with citric acid/sodium citrate, citric acid/sodium citrate 0.1 M, 25° C., read-out: Solubility at 1 hr): 159 mg/mL; solubility at 1 h ([3]; USP buffer with citric acid/sodium citrate, citric acid/sodium citrate 0.5 M, 25° C., read-out: Solubility at 1 hr): 240 mg/mL; solubility at 1 h ([3]; USP buffer with citric acid/sodium citrate, citric acid/sodium citrate 1.0 M, 25° C., read-out: Solubility at 1 hr): 245 mg/mL; solubility at 1 h ([3]; citric acid/sodium citrate ion mixtures, at citrate concentrations of 0.5 M and higher, read-out: solubility): > 200 mg/mL; solubility at 1 h ([4]; DL arginine mixtures, at DL arginine concentrations of 1.0 M and higher, read-out: solubility): > 200 mg/mL; solubility at 1 h ([4]; USP buffer with DL arginine, DL arginine 0.05 M, 25° C., read-out: Solubility at 1 hr): 13 mg/mL; solubility at 1 h ([4]; USP buffer with DL arginine, DL arginine 0.1 M, 25° C., read-out: Solubility at 1 hr): 19 mg/mL; solubility at 1 h ([4]; USP buffer with DL arginine, DL arginine 0.5 M, 25° C., read-out: Solubility at 1 hr): 142 mg/mL; solubility at 1 h ([4]; USP buffer with DL arginine, DL arginine 1.0 M, 25° C., read-out: Solubility at 1 hr): 233 mg/mL; solubility at 1 h ([4]; USP buffer with DL arginine, DL arginine 2.0 M, 25° C., read-out: Solubility at 1 hr): 226 mg/mL; solubility at 1 h ([5]; L-arginine mixtures, at L-arginine concentrations of 0.5 M and higher, read-out: solubility): > 200 mg/mL; solubility at 1 h ([5]; USP buffer with L-arginine, L-arginine 0.05 M, 25° C., read-out: Solubility at 1 hr): 39 mg/mL; solubility at 1 h ([5]; USP buffer with L-arginine, L-arginine 0.1 M, 25° C., read-out: Solubility at 1 hr): 82 mg/mL; solubility at 1 h ([5]; USP buffer with L-arginine, L-arginine 0.5 M, 25° C., read-out: Solubility at 1 hr): 226 mg/mL; solubility at 1 h ([6]; histidine 0.05 M): 43 mg/mL; solubility at 1 h ([6]; histidine 0.1 M): 75 mg/mL; solubility [7]: ~36 mg/mL
